Test results from ChEMBL document CHEMBL1148932, “Cyanopeptolin 963A, a chymotrypsin inhibitor of Microcystis PCC 7806” (J Nat Prod, 2004).
Active and inactive are the calls of the source. The calls are words filed in the database; no cut-off is given here.

Columns and labels:
Sus scrofa = species: Sus scrofa; experiment: Inhibition of trypsin in pig pancreas at 15 uM
[1] = Inhibition of alpha-chymotrypsin in bovine pancreas; design: species or system Bos taurus
Cathepsin B (Bos taurus) = Cathepsin B (Bos taurus) (UniProt P07688); experiment: Inhibition of cathepsin B in bovine spleen at 15 uM

SMILES	Activity (Sus scrofa)	IC50 [1] [µM]	Activity (Cathepsin B (Bos taurus))
CCCCCC(=O)N[C@@H](CC(=O)O)C(=O)N[C@@H]1C(=O)N[C@@H](Cc2ccc(O)cc2)C(=O)N[C@H]2CC[C@@H](O)N(C2=O)[C@@H](CC(C)C)C(=O)N(C)[C@@H](Cc2ccccc2)C(=O)N[C@@H](C(C)C)C(=O)O[C@@H]1C [CYANOPEPTOLIN 963A]	inactive	0.9	inactive
CC[C@H](C)[C@@H]1NC(=O)[C@H](Cc2ccc(O)cc2)N(C)C(=O)[C@H](Cc2ccccc2)N2C(=O)[C@H](CC[C@H]2O)NC(=O)[C@H](Cc2ccccc2)NC(=O)[C@@H](NC(=O)[C@@H](O)COP(=O)(O)O)[C@@H](C)OC1=O [MICROPEPTIN T 20]		0.0025	
